According to PubChem BioAssay AID651817 (Broad Institute, 2012):
Calls of active or inactive are those of the source.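 The calls were made as follows: active = compound whose fitted luminescence drop, meaning cytotoxicity, reaches half effect at most twice its top valid tested dose; inconclusive = flat curve with a moderate drop, or an unreliable fit; inactive = rise instead of drop, flat response, or weaker potency.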

Test system: not listed separately
Experiment: NIH/3T3 fibroblast cytotoxicity, dose response, cytotoxicity control for T. cruzi growth inhibitor project, cell-based, cherry-pick samples, set 2 (AID 651817)
Conditions: NIH/3T3 viability, ATP luminescence (CellTiter-Glo), 90 h; at 3.8 µM (top of the series)

Compound | activity change, negative = cytotoxicity
Cc1ccc(S(=O)(=O)Nc2ccc3c(c2)CC(=O)N([C@H](C)CO)C[C@@H](C)[C@H](CN(C)Cc2ccc(Cl)c(Cl)c2)O3)cc1 | 33.6% (inactive)

Same assay, conditions: NIH/3T3 viability, ATP luminescence (CellTiter-Glo), 90 h; at 18 µM (top of the series)

Compound | activity change, negative = cytotoxicity
C[C@H]1CN([C@@H](C)CO)C(=O)Cc2cc(NS(=O)(=O)c3ccc(Cl)cc3)ccc2O[C@@H]1CN(C)S(=O)(=O)c1ccc(Cl)cc1 | -1.6% (inactive)

Same assay, conditions: NIH/3T3 viability, ATP luminescence (CellTiter-Glo), 90 h; at 19.5 µM (top of the series)

Compound | activity change, negative = cytotoxicity
C[C@H]1CN([C@@H](C)CO)C(=O)c2cccc(NC(=O)c3nc4ccccc4s3)c2O[C@H]1CN(C)S(=O)(=O)c1ccc(Cl)cc1 | 1.37% (inactive)
C[C@H](CO)N1C[C@H](C)[C@@H](CN(C)S(=O)(=O)c2ccccc2)Oc2c(NC(=O)c3nc4ccccc4s3)cccc2C1=O | -18.8% (inactive)
C[C@@H]1CN([C@@H](C)CO)C(=O)c2cccc(NC(=O)c3ccncc3)c2O[C@H]1CN(C)CC1CCCCC1 | -8.6% (inactive)
C[C@@H]1CN([C@@H](C)CO)C(=O)c2cccc(NC(=O)c3nc4ccccc4s3)c2O[C@H]1CN(C)S(=O)(=O)c1ccccc1 | -9.49% (inactive)
C[C@H]1CN([C@@H](C)CO)C(=O)c2cccc(NC(=O)c3ccncc3)c2O[C@@H]1CN(C)Cc1ccc(-c2ccccc2)cc1 | -14.8% (inactive)
C[C@H]1CN([C@@H](C)CO)C(=O)Cc2cc(NS(=O)(=O)c3ccccc3)ccc2O[C@@H]1CN(C)S(=O)(=O)c1ccc(Cl)cc1 | -7.84% (inactive)
COc1ccc(CN(C)C[C@H]2Oc3c(NC(=O)Nc4ccc(C(F)(F)F)cc4)cccc3C(=O)N([C@@H](C)CO)C[C@H]2C)cc1 | -11.1% (inactive)
C[C@@H]1CN([C@H](C)CO)C(=O)c2cccc(NC(=O)c3ccncc3)c2O[C@@H]1CN(C)Cc1ccc2c(c1)OCO2 | -25.6% (inactive)
C[C@@H]1CN([C@@H](C)CO)C(=O)c2cccc(NC(=O)NC3CCCCC3)c2O[C@H]1CN(C)S(=O)(=O)c1ccc(F)cc1 | 12.1% (inactive)
C[C@@H]1CN([C@H](C)CO)C(=O)c2cccc(NC(=O)c3ccncc3)c2O[C@H]1CN(C)CC1CC1 | -26.2% (inactive)
Cc1noc(C)c1NC(=O)Nc1cccc2c1O[C@@H](CN(C)S(C)(=O)=O)[C@H](C)CN([C@@H](C)CO)C2=O | -28% (inactive)
C[C@H]1CN([C@@H](C)CO)C(=O)c2cccc(NC(=O)c3ccncc3)c2O[C@H]1CN(C)Cc1ccc(Cl)c(Cl)c1 | -14.4% (inactive)
Cc1ccc(S(=O)(=O)Nc2ccc3c(c2)CC(=O)N([C@@H](C)CO)C[C@H](C)[C@@H](CN(C)Cc2ccccc2)O3)cc1 | 30.9% (inactive)
Cc1ccc(S(=O)(=O)N(C)C[C@H]2Oc3ccc(NS(=O)(=O)c4ccccc4)cc3CC(=O)N([C@H](C)CO)C[C@H]2C)cc1 | -0.01% (inactive)
C[C@H]1CN([C@@H](C)CO)C(=O)Cc2cc(NS(=O)(=O)c3ccc(Cl)cc3)ccc2O[C@H]1CN(C)S(=O)(=O)c1ccc(Cl)cc1 | -12.7% (inactive)
C[C@H](CO)N1C[C@H](C)[C@@H](CN(C)Cc2ccc(Oc3ccccc3)cc2)Oc2c(NC(=O)c3ccncc3)cccc2C1=O | 16.4% (inactive)
C[C@H](CO)N1C[C@H](C)[C@H](CN(C)CC2CCCCC2)Oc2c(NC(=O)c3ccncc3)cccc2C1=O | 2.09% (inactive)
C[C@@H]1CN([C@@H](C)CO)C(=O)c2cccc(NC(=O)NC3CCCCC3)c2O[C@@H]1CN(C)S(=O)(=O)c1ccc(F)cc1 | 21.4% (inactive)
Cc1ccc(S(=O)(=O)Nc2ccc3c(c2)CC(=O)N([C@H](C)CO)C[C@H](C)[C@H](CN(C)Cc2ccc(Cl)c(Cl)c2)O3)cc1 | -1.7% (inactive)
C[C@@H]1CN([C@H](C)CO)C(=O)c2cccc(NC(=O)NC3CCCCC3)c2O[C@@H]1CN(C)S(=O)(=O)c1ccc(F)cc1 | 18.6% (inactive)
C[C@H](CO)N1C[C@H](C)[C@@H](CN(C)S(=O)(=O)c2ccc(Cl)cc2)Oc2ccc(NS(=O)(=O)c3ccccc3)cc2CC1=O | -20.3% (inactive)

Compound | activity change, negative = cytotoxicity
C[C@H](CO)N1C[C@H](C)[C@H](CN(C)S(=O)(=O)c2ccc(F)cc2)Oc2c(NC(=O)NC3CCCCC3)cccc2C1=O | -54.5% (inactive)
C[C@@H]1CN([C@@H](C)CO)C(=O)c2cccc(NC(=O)c3nc4ccccc4s3)c2O[C@@H]1CN(C)S(=O)(=O)c1ccc(Cl)cc1 | -8.38% (inactive)
COc1ccc(CN(C)C[C@@H]2Oc3c(NC(=O)c4ccncc4)cccc3C(=O)N([C@@H](C)CO)C[C@H]2C)cc1 | -18.8% (inactive)
C[C@@H]1CN([C@@H](C)CO)C(=O)c2cccc(NC(=O)c3nc4ccccc4s3)c2O[C@@H]1CN(C)Cc1ccc2c(c1)OCO2 | 0.748% (inactive)
C[C@H](CO)N1C[C@H](C)[C@@H](CN(C)S(=O)(=O)c2ccc(F)cc2)Oc2c(NC(=O)NC3CCCCC3)cccc2C1=O | 5.78% (inactive)
C[C@@H]1CN([C@H](C)CO)C(=O)Cc2cc(NS(=O)(=O)c3ccc(F)cc3)ccc2O[C@@H]1CN(C)Cc1ccc(Cl)c(Cl)c1 | -49.8% (inactive)
C[C@@H]1CN([C@@H](C)CO)C(=O)c2cccc(NC(=O)c3ccncc3)c2O[C@@H]1CN(C)Cc1ccc(Cl)c(Cl)c1 | 33% (inactive)
COc1ccc(CN(C)C[C@H]2Oc3c(NC(=O)c4ccncc4)cccc3C(=O)N([C@H](C)CO)C[C@@H]2C)cc1 | 23.4% (inactive)
C[C@H]1CN([C@@H](C)CO)C(=O)c2cccc(NC(=O)c3ccncc3)c2O[C@@H]1CN(C)Cc1ccc(Oc2ccccc2)cc1 | -16.8% (inactive)
Cc1noc(C)c1NC(=O)Nc1cccc2c1O[C@@H](CN(C)S(C)(=O)=O)[C@H](C)CN([C@H](C)CO)C2=O | -6.79% (inactive)
C[C@H](CO)N1C[C@H](C)[C@H](CN(C)Cc2ccccc2)Oc2c(NC(=O)c3ccncc3)cccc2C1=O | 6.02% (inactive)
Cc1ccc(S(=O)(=O)N(C)C[C@@H]2Oc3ccc(NS(=O)(=O)c4ccccc4)cc3CC(=O)N([C@@H](C)CO)C[C@@H]2C)cc1 | 9.31% (inactive)
C[C@@H]1CN([C@H](C)CO)C(=O)c2cccc(NC(=O)c3ccncc3)c2O[C@H]1CN(C)CC1CCCCC1 | -12.3% (inactive)
C[C@@H]1CN([C@@H](C)CO)C(=O)Cc2cc(NS(=O)(=O)c3ccc(Cl)cc3)ccc2O[C@@H]1CN(C)S(=O)(=O)c1ccc(Cl)cc1 | -14.1% (inactive)
Cc1ccc(S(=O)(=O)N(C)C[C@@H]2Oc3ccc(NS(=O)(=O)c4ccccc4)cc3CC(=O)N([C@H](C)CO)C[C@H]2C)cc1 | -18.9% (inactive)
C[C@H](CO)N1C[C@H](C)[C@@H](CN(C)CC2CCCCC2)Oc2c(NC(=O)c3ccncc3)cccc2C1=O | -21.4% (inactive)
COc1ccc(CN(C)C[C@@H]2Oc3c(NC(=O)c4ccncc4)cccc3C(=O)N([C@H](C)CO)C[C@H]2C)cc1 | -20.7% (inactive)
C[C@@H]1CN([C@@H](C)CO)C(=O)c2cccc(NC(=O)c3ccncc3)c2O[C@@H]1CN(C)CC1CCCCC1 | 15.4% (inactive)
COc1ccc(CN(C)C[C@@H]2Oc3c(NC(=O)Nc4ccc(C(F)(F)F)cc4)cccc3C(=O)N([C@@H](C)CO)C[C@H]2C)cc1 | -16.2% (inactive)
C[C@H]1CN([C@@H](C)CO)C(=O)c2cccc(NC(=O)c3ccncc3)c2O[C@H]1CN(C)Cc1ccc(C(F)(F)F)cc1 | -30.7% (inactive)
C[C@@H]1CN([C@@H](C)CO)C(=O)c2cccc(NC(=O)c3nc4ccccc4s3)c2O[C@@H]1CN(C)S(=O)(=O)c1ccccc1 | -7.14% (inactive)

Same assay, conditions: NIH/3T3 viability, ATP luminescence (CellTiter-Glo), 90 h; at 21 µM (top of the series)

Compound | activity change, negative = cytotoxicity
C[C@H]1CN([C@@H](C)CO)C(=O)c2cccc(NC(=O)c3ccncc3)c2O[C@H]1CN(C)Cc1ccc(Oc2ccccc2)cc1 | 7.51% (inactive)
C[C@H]1CN([C@@H](C)CO)C(=O)c2cccc(NC(=O)Nc3ccc(C(F)(F)F)cc3)c2O[C@@H]1CN(C)Cc1ccc(Cl)c(Cl)c1 | -12.5% (inactive)
C[C@H](CO)N1C[C@H](C)[C@H](CN(C)S(=O)(=O)c2ccc(Cl)cc2)Oc2ccc(NS(=O)(=O)c3ccccc3)cc2CC1=O | -11.3% (inactive)
Cc1ccc(S(=O)(=O)N(C)C[C@H]2Oc3ccc(NS(=O)(=O)c4ccc(Cl)cc4)cc3CC(=O)N([C@@H](C)CO)C[C@@H]2C)cc1 | -2.46% (inactive)
Cc1ccc(S(=O)(=O)N(C)C[C@H]2Oc3ccc(NS(=O)(=O)c4ccc(Cl)cc4)cc3CC(=O)N([C@@H](C)CO)C[C@H]2C)cc1 | -13.4% (inactive)
Cc1ccc(S(=O)(=O)N(C)C[C@H]2Oc3ccc(NS(=O)(=O)c4ccccc4)cc3CC(=O)N([C@@H](C)CO)C[C@H]2C)cc1 | -30.2% (inactive)
C[C@@H]1CN([C@H](C)CO)C(=O)c2cccc(NC(=O)c3ccncc3)c2O[C@H]1CN(C)Cc1ccc(C(F)(F)F)cc1 | -18.8% (inactive)

Test system: NIH/3T3 viability, ATP luminescence (CellTiter-Glo), 90 h
Experiment: as above
Conditions: not given

Compound | AC50 [µM]
C[C@@H]1CN([C@@H](C)CO)C(=O)c2cccc(NC(=O)c3ccncc3)c2O[C@H]1CN(C)Cc1ccc(Oc2ccccc2)cc1 | 20.5
